For 5 compounds, IC50 and inhibition results are on record in ChEMBL document CHEMBL3865849, “Development of N-(4-Phenoxyphenyl)benzenesulfonamide Derivatives as Novel Nonsteroidal Progesterone Receptor Antagonists” (ACS Med Chem Lett, 2016).

Activity calls are given as the source filed them. The calls are words filed in the database; no cut-off is given here.

One test has as its target T1, Glucocorticoid receptor (Homo sapiens, UniProt P04150).
T1 sequence (P04150 whole entry): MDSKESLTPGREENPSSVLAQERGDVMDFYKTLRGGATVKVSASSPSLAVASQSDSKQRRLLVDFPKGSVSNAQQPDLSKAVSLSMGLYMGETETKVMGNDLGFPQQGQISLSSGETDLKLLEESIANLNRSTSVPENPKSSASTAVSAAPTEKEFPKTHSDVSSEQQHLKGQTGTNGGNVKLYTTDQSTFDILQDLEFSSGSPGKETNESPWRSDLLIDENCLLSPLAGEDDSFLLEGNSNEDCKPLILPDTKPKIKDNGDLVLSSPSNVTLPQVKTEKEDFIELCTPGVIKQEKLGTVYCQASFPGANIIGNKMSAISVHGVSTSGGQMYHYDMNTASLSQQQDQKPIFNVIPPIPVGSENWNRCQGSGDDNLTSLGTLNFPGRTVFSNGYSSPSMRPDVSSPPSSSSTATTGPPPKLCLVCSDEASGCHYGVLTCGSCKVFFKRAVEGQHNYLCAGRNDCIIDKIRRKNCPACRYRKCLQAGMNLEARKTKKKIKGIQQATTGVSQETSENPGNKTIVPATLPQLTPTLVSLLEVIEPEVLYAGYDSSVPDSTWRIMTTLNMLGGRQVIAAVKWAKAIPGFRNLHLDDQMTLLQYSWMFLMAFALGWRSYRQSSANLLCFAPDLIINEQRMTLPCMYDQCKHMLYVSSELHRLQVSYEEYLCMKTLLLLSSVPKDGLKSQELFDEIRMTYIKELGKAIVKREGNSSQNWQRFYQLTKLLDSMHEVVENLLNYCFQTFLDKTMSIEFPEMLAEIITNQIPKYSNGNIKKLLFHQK
As to the kind of experiment: Antagonist activity at human glucocorticoid receptor-alpha expressed in HEK293 cells measured after 24 hrs by luciferase reporter gene assay. Type of test: cell-based.

Test [1] addresses T2, Progesterone receptor (Homo sapiens, UniProt P06401).
T2 sequence (P06401 whole entry): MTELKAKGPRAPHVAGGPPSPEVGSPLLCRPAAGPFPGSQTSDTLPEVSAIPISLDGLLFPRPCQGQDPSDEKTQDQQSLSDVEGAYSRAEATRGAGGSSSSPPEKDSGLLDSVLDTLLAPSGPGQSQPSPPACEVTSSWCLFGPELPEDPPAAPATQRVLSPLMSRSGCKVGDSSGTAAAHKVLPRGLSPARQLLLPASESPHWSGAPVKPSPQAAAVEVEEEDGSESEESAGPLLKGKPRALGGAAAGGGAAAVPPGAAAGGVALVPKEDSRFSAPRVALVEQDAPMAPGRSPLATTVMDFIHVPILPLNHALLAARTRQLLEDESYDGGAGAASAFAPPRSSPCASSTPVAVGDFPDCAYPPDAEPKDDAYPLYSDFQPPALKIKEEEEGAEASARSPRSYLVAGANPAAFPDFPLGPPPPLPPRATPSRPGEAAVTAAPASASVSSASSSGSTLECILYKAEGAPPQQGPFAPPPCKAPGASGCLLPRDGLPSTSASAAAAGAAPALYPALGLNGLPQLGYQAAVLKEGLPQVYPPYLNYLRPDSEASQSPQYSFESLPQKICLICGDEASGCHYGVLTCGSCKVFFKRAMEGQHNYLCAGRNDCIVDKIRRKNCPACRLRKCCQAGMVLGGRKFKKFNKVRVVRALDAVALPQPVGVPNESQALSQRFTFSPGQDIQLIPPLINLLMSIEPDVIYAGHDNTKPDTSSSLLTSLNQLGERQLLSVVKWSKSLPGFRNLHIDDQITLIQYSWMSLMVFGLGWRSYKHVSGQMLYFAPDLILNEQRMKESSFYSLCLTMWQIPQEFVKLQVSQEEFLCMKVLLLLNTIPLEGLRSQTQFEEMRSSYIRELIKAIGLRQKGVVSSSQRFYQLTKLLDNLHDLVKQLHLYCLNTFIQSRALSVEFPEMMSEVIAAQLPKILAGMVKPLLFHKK
As to the kind of experiment: Displacement of [1,2,6,7-3H]-PG from recombinant human GST-tagged PR-LBD (657 to 933 residues) expressed in baculovirus infected insect cells measured after 24 hrs by liquid scintillation counting method.

The target of test [2] is T3, Progesterone receptor (Homo sapiens) (UniProt P06401).
T3 sequence (whole entry): T2 sequence (P06401 whole entry)
Description: Antagonist activity at progesterone receptor in human T47D cells assessed as suppression of P4-induced Na/K-ATPase-beta1 expression level at 1 and 10 uM measured after 16 hrs by Western blot analysis. Type of test: cell-based.

The target in the next test is T4, Estrogen receptor (Homo sapiens, UniProt P03372).
T4 sequence (P03372 whole entry): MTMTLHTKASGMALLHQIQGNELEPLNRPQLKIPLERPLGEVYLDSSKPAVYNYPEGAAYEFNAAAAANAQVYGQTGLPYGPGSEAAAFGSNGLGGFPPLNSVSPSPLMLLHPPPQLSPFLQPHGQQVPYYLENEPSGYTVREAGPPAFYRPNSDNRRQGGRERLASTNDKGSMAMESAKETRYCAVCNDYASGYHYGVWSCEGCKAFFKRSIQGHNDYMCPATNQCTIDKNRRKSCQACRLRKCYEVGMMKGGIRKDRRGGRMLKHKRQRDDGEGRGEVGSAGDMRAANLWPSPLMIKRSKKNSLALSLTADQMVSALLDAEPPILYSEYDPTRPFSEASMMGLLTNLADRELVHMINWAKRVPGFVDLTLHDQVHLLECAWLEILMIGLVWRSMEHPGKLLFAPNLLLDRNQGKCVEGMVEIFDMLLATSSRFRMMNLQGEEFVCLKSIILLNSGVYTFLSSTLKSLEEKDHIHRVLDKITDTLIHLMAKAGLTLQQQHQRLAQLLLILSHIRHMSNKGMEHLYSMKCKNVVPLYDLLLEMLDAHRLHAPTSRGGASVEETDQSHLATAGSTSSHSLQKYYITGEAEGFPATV
As to the kind of experiment: Antagonist activity at human Gal4-tagged estrogen receptor-alpha LBD expressed in HEK293 cells measured after 24 hrs by luciferase reporter gene assay. It counts as cell-based.

The next test deals with T5, Androgen receptor (Homo sapiens, UniProt P10275).
T5 sequence (P10275 whole entry): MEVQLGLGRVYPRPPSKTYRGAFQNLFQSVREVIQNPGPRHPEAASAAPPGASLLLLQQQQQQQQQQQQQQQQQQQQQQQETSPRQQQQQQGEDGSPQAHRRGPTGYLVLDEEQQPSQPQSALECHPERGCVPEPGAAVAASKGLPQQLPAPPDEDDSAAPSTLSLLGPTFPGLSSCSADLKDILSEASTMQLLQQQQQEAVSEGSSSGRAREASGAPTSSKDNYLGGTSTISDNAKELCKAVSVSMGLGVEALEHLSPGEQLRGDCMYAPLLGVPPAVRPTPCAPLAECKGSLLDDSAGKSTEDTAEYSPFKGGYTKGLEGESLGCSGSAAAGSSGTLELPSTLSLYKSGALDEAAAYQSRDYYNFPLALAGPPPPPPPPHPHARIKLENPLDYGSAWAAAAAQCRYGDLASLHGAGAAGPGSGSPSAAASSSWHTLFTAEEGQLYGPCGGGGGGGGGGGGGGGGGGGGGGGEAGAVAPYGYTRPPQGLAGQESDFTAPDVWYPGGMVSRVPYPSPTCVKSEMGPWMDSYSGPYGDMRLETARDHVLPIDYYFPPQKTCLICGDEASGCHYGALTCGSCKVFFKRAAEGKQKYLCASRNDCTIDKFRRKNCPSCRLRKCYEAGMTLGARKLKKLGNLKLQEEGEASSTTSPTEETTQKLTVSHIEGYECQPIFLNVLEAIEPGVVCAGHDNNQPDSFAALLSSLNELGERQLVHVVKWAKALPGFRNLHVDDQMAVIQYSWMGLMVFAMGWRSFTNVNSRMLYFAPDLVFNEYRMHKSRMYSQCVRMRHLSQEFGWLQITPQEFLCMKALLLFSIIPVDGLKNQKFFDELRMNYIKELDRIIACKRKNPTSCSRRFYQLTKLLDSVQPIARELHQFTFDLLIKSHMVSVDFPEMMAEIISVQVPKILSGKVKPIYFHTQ
Description: Antagonist activity at human AR expressed in HEK293 cells measured after 24 hrs by luciferase reporter gene assay. It counts as cell-based.

Test [3] concerns the target T2, Progesterone receptor. Description: Antagonist activity at progesterone receptor in human T47D cells incubated for 24 hrs in presence of P4 by alkaline phosphatase assay. It counts as cell-based.
Another test deals with Estrogen receptor beta (Homo sapiens, UniProt Q92731). As to the kind of experiment: Antagonist activity at human Gal4-tagged estrogen receptor-beta LBD expressed in HEK293 cells measured after 24 hrs by luciferase reporter gene assay. It counts as cell-based.
Estrogen receptor beta, sequence (Q92731 whole entry, the tested form may be a part): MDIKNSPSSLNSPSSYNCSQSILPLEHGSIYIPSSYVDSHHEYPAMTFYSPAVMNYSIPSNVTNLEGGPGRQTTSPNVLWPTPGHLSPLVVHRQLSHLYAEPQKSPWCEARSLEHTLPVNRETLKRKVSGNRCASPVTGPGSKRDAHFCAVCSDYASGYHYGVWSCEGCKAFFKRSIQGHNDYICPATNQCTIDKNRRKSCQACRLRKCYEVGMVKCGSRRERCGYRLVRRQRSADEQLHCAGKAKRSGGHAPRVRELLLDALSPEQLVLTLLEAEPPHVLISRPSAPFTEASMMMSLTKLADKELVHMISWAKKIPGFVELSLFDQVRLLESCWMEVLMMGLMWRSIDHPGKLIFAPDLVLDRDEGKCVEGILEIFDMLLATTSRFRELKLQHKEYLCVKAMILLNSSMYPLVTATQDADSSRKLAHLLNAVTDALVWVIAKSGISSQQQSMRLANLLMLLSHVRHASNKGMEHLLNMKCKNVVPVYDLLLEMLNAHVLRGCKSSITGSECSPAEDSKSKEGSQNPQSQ

With `O=S(=O)(Nc1ccc(Oc2ccccc2)cc1)c1cccc(C(F)(F)F)c1`, the IC50 at Glucocorticoid receptor was 12000 nM; at Progesterone receptor [1], 40 nM; at Estrogen receptor, greater than 30000 nM; against Androgen receptor it was 5300 nM; on Progesterone receptor [3] it was 33 nM; on Estrogen receptor beta, 23000 nM. The inhibition entry in test [2] is “Active”.

For the compound `O=S(=O)(Nc1ccc(-c2ccccc2)cc1)c1cccc(Cl)c1`, the IC50 at Progesterone receptor [1] worked out at 110 nM; on Progesterone receptor [3], 330 nM.

For `O=S(=O)(Nc1ccc(Oc2ccccc2)cc1)c1cccc(Br)c1`, the half-inhibitory concentration (IC50) on Progesterone receptor [1] turned out to be 47 nM; on Progesterone receptor [3], 110 nM.

For `O=S(=O)(Nc1ccc(Oc2ccccc2)cc1)c1cccc(F)c1`, the concentration for half-maximal inhibition (IC50) came out at 310 nM on Progesterone receptor [1] and 220 nM on Progesterone receptor [3].

Take `O=[N+]([O-])c1cccc(S(=O)(=O)Nc2ccc(Oc3ccccc3)cc2)c1`: the IC50 on Progesterone receptor [1] and at Progesterone receptor [3] was 140 nM in each case.
